Results published in the supplement of paper PMC10307832.

How the values were obtained:
Experiment in all cases: relative viability (nuclei count vs DMSO), 5 days (fraction); higher = more cells survive
[1] = test system: H3255
Procedure, shortened: (§1)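 Lung cancer cell lines in 1536-well plates were dosed by pin tool the day after seeding, either with one drug alone or with a fixed anchor-drug dose plus five library-drug doses (not always all listed) in √10 steps. After 5 days, cells were fixed and their nuclei stained in one step (final 0.05% Triton X-100, 1% formaldehyde, 1 ug/ml Hoechst), then counted on 4× images. Relative viability is the nuclei count in treated wells divided by that in vehicle wells. Values are medians of duplicate plates.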

[2] = test system: PC-14
Procedure, shortened: as §1

[3] = test system: LK-2
Procedure, shortened: as §1

[4] = test system: NCI-H460
Procedure, shortened: as §1

[5] = test system: LU99A
Procedure, shortened: as §1

[6] = test system: NCI-H2347
Procedure, shortened: as §1

[7] = test system: LC-2-ad
Procedure, shortened: as §1

[8] = test system: SW 900
Procedure, shortened: as §1

[9] = test system: COR-L23
Procedure, shortened: as §1

[10] = test system: LCLC-103H
Procedure, shortened: as §1

[11] = test system: NCI-H1563
Procedure, shortened: as §1

[12] = test system: NCI-H23
Procedure, shortened: as §1

[13] = test system: SW 1573
Procedure, shortened: as §1

[14] = test system: NCI-H596
Procedure, shortened: as §1

[15] = test system: LCLC-97TM1
Procedure, shortened: as §1

[16] = test system: NCI-H2228
Procedure, shortened: as §1

[17] = test system: HCC-44
Procedure, shortened: as §1

[18] = test system: 201T
Procedure, shortened: as §1

[19] = test system: NCI-H727
Procedure, shortened: as §1

[20] = test system: NCI-H1650
Procedure, shortened: as §1

[21] = test system: A-427
Procedure, shortened: as §1

[22] = test system: PC-3 [JPC-3]
Procedure, shortened: as §1

[23] = test system: NCI-H1793
Procedure, shortened: as §1

O=c1cc(-c2cccc3c2Sc2ccccc2S3)oc(N2CCOCC2)c1 + N=C(N)NC(=N)NCCc1ccccc1 [Phenformin] (partner 250 µM)
relative viability ([1]; first compound 0.08 µM): 0.323 | relative viability ([1]; first compound 0.253 µM): 0.393 | relative viability ([1]; first compound 0.8 µM): 0.339 | relative viability ([1]; first compound 2.53 µM): 0.338 | relative viability ([1]; first compound 8 µM): 0.39 | relative viability ([2]; first compound 0.08 µM): 0.553 | relative viability ([2]; first compound 0.253 µM): 0.479 | relative viability ([2]; first compound 0.8 µM): 0.54 | relative viability ([2]; first compound 8 µM): 0.746 | relative viability ([3]; first compound 0.08 µM): 0.582 | relative viability ([3]; first compound 0.253 µM): 0.551 | relative viability ([3]; first compound 0.8 µM): 0.524 | relative viability ([3]; first compound 2.53 µM): 0.29 | relative viability ([3]; first compound 8 µM): 0.381 | relative viability ([4]; first compound 0.08 µM): 0.535 | relative viability ([4]; first compound 0.253 µM): 0.549 | relative viability ([4]; first compound 0.8 µM): 0.571 | relative viability ([4]; first compound 2.53 µM): 0.525 | relative viability ([4]; first compound 8 µM): 0.531 | relative viability ([5]; first compound 0.08 µM): 0.872 | relative viability ([5]; first compound 0.253 µM): 1.08 | relative viability ([5]; first compound 0.8 µM): 1.03 | relative viability ([5]; first compound 2.53 µM): 0.896 | relative viability ([5]; first compound 8 µM): 1 | relative viability ([6]; first compound 0.08 µM): 0.541 | relative viability ([6]; first compound 0.253 µM): 0.501 | relative viability ([6]; first compound 0.8 µM): 0.416 | relative viability ([6]; first compound 2.53 µM): 0.279 | relative viability ([6]; first compound 8 µM): 0.362 | relative viability ([7]; first compound 0.08 µM): 0.557 | relative viability ([7]; first compound 0.253 µM): 0.576 | relative viability ([7]; first compound 0.8 µM): 0.645 | relative viability ([7]; first compound 2.53 µM): 0.558 | relative viability ([7]; first compound 8 µM): 0.592 | relative viability ([8]; first compound 0.08 µM): 0.645 | relative viability ([8]; first compound 0.253 µM): 0.627 | relative viability ([8]; first compound 0.8 µM): 0.441 | relative viability ([8]; first compound 2.53 µM): 0.567 | relative viability ([8]; first compound 8 µM): 0.597 | relative viability ([9]; first compound 0.08 µM): 0.478 | relative viability ([9]; first compound 0.253 µM): 0.484 | relative viability ([9]; first compound 0.8 µM): 0.511 | relative viability ([9]; first compound 2.53 µM): 0.459 | relative viability ([9]; first compound 8 µM): 0.545 | relative viability ([10]; first compound 0.08 µM): 0.31 | relative viability ([10]; first compound 0.253 µM): 0.374 | relative viability ([10]; first compound 0.8 µM): 0.361 | relative viability ([10]; first compound 2.53 µM): 0.336 | relative viability ([10]; first compound 8 µM): 0.296 | relative viability ([11]; first compound 0.08 µM): 0.626 | relative viability ([11]; first compound 0.253 µM): 0.689 | relative viability ([11]; first compound 0.8 µM): 0.617 | relative viability ([11]; first compound 2.53 µM): 0.633 | relative viability ([11]; first compound 8 µM): 0.611 | relative viability ([12]; first compound 0.08 µM): 0.811 | relative viability ([12]; first compound 0.253 µM): 0.96 | relative viability ([12]; first compound 0.8 µM): 0.901 | relative viability ([12]; first compound 2.53 µM): 0.714 | relative viability ([12]; first compound 8 µM): 0.959 | relative viability ([13]; first compound 0.08 µM): 0.38 | relative viability ([13]; first compound 0.253 µM): 0.369 | relative viability ([13]; first compound 0.8 µM): 0.339 | relative viability ([13]; first compound 2.53 µM): 0.347 | relative viability ([13]; first compound 8 µM): 0.364 | relative viability ([14]; first compound 0.08 µM): 0.808 | relative viability ([14]; first compound 0.253 µM): 0.812 | relative viability ([14]; first compound 0.8 µM): 0.921 | relative viability ([14]; first compound 2.53 µM): 0.756 | relative viability ([14]; first compound 8 µM): 0.887 | relative viability ([15]; first compound 0.08 µM): 0.403 | relative viability ([15]; first compound 0.253 µM): 0.361 | relative viability ([15]; first compound 0.8 µM): 0.475 | relative viability ([15]; first compound 2.53 µM): 0.418 | relative viability ([15]; first compound 8 µM): 0.496 | relative viability ([16]; first compound 0.08 µM): 0.346 | relative viability ([16]; first compound 0.253 µM): 0.25 | relative viability ([16]; first compound 0.8 µM): 0.426 | relative viability ([16]; first compound 2.53 µM): 0.267 | relative viability ([16]; first compound 8 µM): 0.277 | relative viability ([17]; first compound 0.08 µM): 0.173 | relative viability ([17]; first compound 0.253 µM): 0.172 | relative viability ([17]; first compound 0.8 µM): 0.144 | relative viability ([17]; first compound 2.53 µM): 0.182 | relative viability ([17]; first compound 8 µM): 0.217 | relative viability ([18]; first compound 0.08 µM): 0.445 | relative viability ([18]; first compound 0.253 µM): 0.545 | relative viability ([18]; first compound 0.8 µM): 0.423 | relative viability ([18]; first compound 2.53 µM): 0.427 | relative viability ([18]; first compound 8 µM): 0.498 | relative viability ([19]; first compound 0.08 µM): 0.503 | relative viability ([19]; first compound 0.253 µM): 0.591 | relative viability ([19]; first compound 0.8 µM): 0.411 | relative viability ([19]; first compound 2.53 µM): 0.571 | relative viability ([19]; first compound 8 µM): 0.525 | relative viability ([20]; first compound 0.08 µM): 0.379 | relative viability ([20]; first compound 0.253 µM): 0.561 | relative viability ([20]; first compound 0.8 µM): 0.434 | relative viability ([20]; first compound 2.53 µM): 0.263 | relative viability ([20]; first compound 8 µM): 0.365 | relative viability ([21]; first compound 0.08 µM): 0.282 | relative viability ([21]; first compound 0.253 µM): 0.313 | relative viability ([21]; first compound 0.8 µM): 0.376 | relative viability ([21]; first compound 8 µM): 0.35 | relative viability ([22]; first compound 0.08 µM): 0.473 | relative viability ([22]; first compound 0.253 µM): 0.458 | relative viability ([22]; first compound 0.8 µM): 0.514 | relative viability ([22]; first compound 2.53 µM): 0.448 | relative viability ([22]; first compound 8 µM): 0.495 | relative viability ([23]; first compound 0.08 µM): 0.344 | relative viability ([23]; first compound 0.253 µM): 0.398 | relative viability ([23]; first compound 0.8 µM): 0.347 | relative viability ([23]; first compound 2.53 µM): 0.306 | relative viability ([23]; first compound 8 µM): 0.279
